# Results as given in ChEMBL document CHEMBL1201862, “PubChem BioAssay data set” (2004).
#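 Grown in 96-well plates, cells were treated for 48 hours with each compound at five concentrations. Insufficient inhibition: endpoint recorded as highest concentration tested. GI50 = concentration required for 50% inhibition of growth.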 Active and inactive are the calls of the source. No stated cut-off is given here; in the data, active = GI50 up to about 1.1 µM and inactive = higher.
# Experiments:
# Assay in all cases: growth of human tumour cells (NCI), 48 h
# [1] = test system: IGROV-1
# [2] = test system: HOP-92
# [3] = test system: SW-620
# [4] = test system: HOP-62
# [5] = test system: SK-OV-3
# [6] = test system: SK-MEL-28
# [7] = test system: SNB-78
# [8] = test system: DMS-273
# [9] = test system: SNB-19
# [10] = test system: Malme-3M
# [11] = test system: MOLT-4
# [12] = test system: OVCAR-5
# [13] = test system: HCC 2998
# [14] = test system: HT-29
# [15] = test system: SK-MEL-5
# [16] = test system: M14
# [17] = test system: COLO 205
# [18] = test system: KM-20L2
# [19] = test system: RPMI-8226
# [20] = test system: U-251
# [21] = test system: CAKI-1
# [22] = test system: HL-60
# [23] = test system: UACC-257
# [24] = test system: 786-0
# [25] = test system: A498
# [26] = test system: SN12C
# [27] = test system: SR
# [28] = test system: ACHN
# [29] = test system: SF-295
# [30] = test system: SF-268
# [31] = test system: UO-31
# [32] = test system: OVCAR-8
# [33] = test system: NCI-H23
# [34] = test system: KM12
# [35] = test system: UACC-62
# [36] = test system: M19-MEL
# [37] = test system: SK-MEL-2
# [38] = test system: SNB-75
# [39] = test system: A549
# [40] = test system: K562
# [41] = test system: DLD-1
# [42] = test system: LXFL 529
# [43] = test system: DMS-114
# [44] = test system: HCT-15
# [45] = test system: NCI-H226
# [46] = test system: NCI-H460
# [47] = test system: SF-539
# [48] = test system: OVCAR-4
# [49] = test system: NCI-H522
# [50] = test system: HCT-116
# [51] = test system: XF498
# [52] = test system: RXF 393
# [53] = test system: CCRF-CEM
# [54] = test system: EKVX
# [55] = test system: RXF 631
# [56] = test system: TK-10
# [57] = test system: OVCAR-3
# [58] = test system: LOX IMVI
smiles,measurement,setting,value
O=C(CCc1cc(-c2ccco2)n(-c2ccc([N+](=O)[O-])cc2[N+](=O)[O-])n1)Nc1ccccc1,GI50,[1],> 100 µM (inactive)
same,GI50,[2],> 100 µM (inactive)
same,GI50,[3],> 100 µM (inactive)
same,GI50,[4],> 100 µM (inactive)
same,GI50,[5],> 100 µM (inactive)
same,GI50,[6],> 100 µM (inactive)
same,GI50,[7],> 100 µM (inactive)
same,GI50,[8],> 100 µM (inactive)
same,GI50,[9],> 100 µM (inactive)
same,GI50,[10],32.8 µM (inactive)
same,GI50,[11],65.8 µM (inactive)
same,GI50,[12],> 100 µM (inactive)
same,GI50,[13],> 100 µM (inactive)
same,GI50,[14],> 100 µM (inactive)
same,GI50,[15],> 100 µM (inactive)
same,GI50,[16],> 100 µM (inactive)
same,GI50,[17],> 100 µM (inactive)
same,GI50,[18],> 100 µM (inactive)
same,GI50,[19],> 100 µM (inactive)
same,GI50,[20],> 100 µM (inactive)
same,GI50,[21],> 100 µM (inactive)
same,GI50,[22],49.3 µM (inactive)
same,GI50,[23],> 100 µM (inactive)
same,GI50,[24],> 100 µM (inactive)
same,GI50,[25],> 100 µM (inactive)
same,GI50,[26],> 100 µM (inactive)
same,GI50,[27],> 100 µM (inactive)
same,GI50,[28],> 100 µM (inactive)
same,GI50,[29],> 100 µM (inactive)
same,GI50,[30],> 100 µM (inactive)
same,GI50,[31],> 100 µM (inactive)
same,GI50,[32],> 100 µM (inactive)
same,GI50,[33],> 100 µM (inactive)
same,GI50,[34],> 100 µM (inactive)
same,GI50,[35],> 100 µM (inactive)
same,GI50,[36],> 100 µM (inactive)
same,GI50,[37],> 100 µM (inactive)
same,GI50,[38],> 100 µM (inactive)
same,GI50,[39],> 100 µM (inactive)
same,GI50,[40],45.5 µM (inactive)
same,GI50,[41],> 100 µM (inactive)
same,GI50,[42],> 100 µM (inactive)
same,GI50,[43],> 100 µM (inactive)
same,GI50,[44],> 100 µM
same,GI50,[45],> 100 µM (inactive)
same,GI50,[46],> 100 µM (inactive)
same,GI50,[47],> 100 µM (inactive)
same,GI50,[48],> 100 µM (inactive)
same,GI50,[49],> 100 µM (inactive)
same,GI50,[50],> 100 µM (inactive)
same,GI50,[51],> 100 µM (inactive)
same,GI50,[52],> 100 µM (inactive)
same,GI50,[53],61 µM (inactive)
same,GI50,[54],> 100 µM (inactive)
same,GI50,[55],> 100 µM (inactive)
CCCCC(C(=O)C(=O)Nc1ccccc1CC)C(=O)C(C)C (stereo not drawn),GI50,[1],> 100 µM (inactive)
same,GI50,[2],> 100 µM (inactive)
same,GI50,[56],> 100 µM (inactive)
same,GI50,[3],> 100 µM (inactive)
same,GI50,[5],> 100 µM (inactive)
same,GI50,[7],> 100 µM (inactive)
same,GI50,[8],> 100 µM (inactive)
same,GI50,[9],> 100 µM (inactive)
same,GI50,[10],> 100 µM (inactive)
same,GI50,[11],> 100 µM (inactive)
same,GI50,[12],> 100 µM (inactive)
same,GI50,[13],> 100 µM (inactive)
same,GI50,[14],> 100 µM (inactive)
same,GI50,[15],> 100 µM (inactive)
same,GI50,[16],> 100 µM (inactive)
same,GI50,[17],> 100 µM (inactive)
same,GI50,[18],> 100 µM (inactive)
same,GI50,[19],> 100 µM (inactive)
same,GI50,[20],> 100 µM (inactive)
same,GI50,[21],> 100 µM (inactive)
same,GI50,[22],> 100 µM (inactive)
same,GI50,[23],> 100 µM (inactive)
same,GI50,[24],> 100 µM (inactive)
same,GI50,[25],> 100 µM (inactive)
same,GI50,[26],> 100 µM (inactive)
same,GI50,[28],> 100 µM (inactive)
same,GI50,[29],> 100 µM (inactive)
same,GI50,[30],> 100 µM (inactive)
same,GI50,[31],> 100 µM (inactive)
same,GI50,[32],> 100 µM (inactive)
same,GI50,[33],> 100 µM (inactive)
same,GI50,[34],> 100 µM (inactive)
same,GI50,[35],> 100 µM (inactive)
same,GI50,[36],> 100 µM (inactive)
same,GI50,[37],> 100 µM (inactive)
same,GI50,[57],> 100 µM (inactive)
same,GI50,[39],> 100 µM (inactive)
same,GI50,[40],> 100 µM (inactive)
same,GI50,[41],> 100 µM (inactive)
same,GI50,[42],> 100 µM (inactive)
same,GI50,[43],> 100 µM (inactive)
same,GI50,[44],> 100 µM
same,GI50,[45],> 100 µM (inactive)
same,GI50,[46],> 100 µM (inactive)
same,GI50,[47],> 100 µM (inactive)
same,GI50,[48],> 100 µM (inactive)
same,GI50,[49],> 100 µM (inactive)
same,GI50,[50],> 100 µM (inactive)
same,GI50,[51],> 100 µM (inactive)
same,GI50,[53],> 100 µM (inactive)
same,GI50,[54],> 100 µM (inactive)
same,GI50,[58],> 100 µM (inactive)
same,GI50,[55],> 100 µM (inactive)
